Laboratory results as given in PMC10482942, “Novel quinazoline-1,2,3-triazole hybrids with anticancer and MET kinase targeting properties” (Scientific Reports, 2023).

Assays:
[1] = test system: K562 cells; assay: SRB antiproliferative assay, monolayer culture; format: cell-based, human; conditions: Homo sapiens, K562, 72 h, mean ± S.E.M.
Description: (§1) EBC-1 (human lung […] cells with MET gene amplification) and Mia-Paca-2 (human PDAC cells) were obtained from Japanese Collection of Research Bio Resources Cell Bank (JCRB). AsPC-1 (human PDAC), MKN-45 (human gastric adenocarcinoma cells with MET gene amplification), HT-29 (human colorectal adenocarcinoma), and K562 cells (human chronic myelogenous leukemia) were obtained from the Iranian Biological Resource Centre, Tehran, Iran. AsPC-1, EBC-1, MKN-45, and K562 cells were cultured in RPMI 1640 medium containing 10% heat-inactivated fetal bovine serum (FBS) and 1% penicillin/streptomycin. Mia-Paca-2 and HT-29 cells were grown in DMEM low glucose, containing 10% and 20% heat-inactivated FBS, resoectively and 100 U/ml penicillin/streptomycin. All cells were grown in monolayer cultures at 37 °C in a humidified incubator with 5% CO2.
(§2) Antiproliferative effects of synthetic compounds were evaluated by the SRB assay as described previously. Cancer cells were trypsinized, homogenous cell suspensions were prepared and 100 µl of cell suspensions were cultured at the densities of 5 × 10^4 cells/ml (for AsPC-1 and Mia-Paca-2), 4 × 10^4 cells/m (for EBC-1 and MKN-45), 3 × 10^4 cells/ml (for K562) and 1 × 10^4 cells/ml (for HT-29) in 96-well flat-bottom plates. After 24 h of incubation to allow cells to attach and resume optimal growth, the synthetic compounds dissolved in DMSO and diluted in the growth medium were added. One hundred µl of synthesized derivatives were added at different concentrations in triplicate and incubated for an additional 72 h at 37 °C. The cells were then fixed by gentle addition of 50 μl cold trichloroacetic acid (TCA) 50% (w/v, 10% final concentration) and incubated for 60 min at 4 °C. Then, the supernatant was discarded, and the plates were washed four times with distilled water and air dried. Afterwards, 100 μl of SRB solution 0.04% (w/v) dissolved in 1% acetic acid was added to each well, and plates were incubated for 15 min at room temperature. At the next step, the unbound dye was removed by washing four times with 1% acetic acid and the plates were air dried. The bound stain was finally solubilized with 150 μl of 10 mM Tris base solution, and the absorbance was recorded at a wavelength of 540 nm with a Bio-Tek microplate reader (Model Synergy HTX).

[2] = test system: Mia-Paca-2 cells; assay: SRB antiproliferative assay, monolayer culture; format: cell-based, human; conditions: Homo sapiens, MIA PaCa-2, 72 h, mean ± S.E.M.
Description: as §1, §2

[3] = test system: AsPC-1 cells; assay: SRB antiproliferative assay, monolayer culture; format: cell-based, human; conditions: Homo sapiens, ASPC1, 72 h, mean ± S.E.M.
Description: as §1, §2

[4] = test system: HT-29 cells; assay: SRB antiproliferative assay, monolayer culture; format: cell-based, human; conditions: Homo sapiens, HT-29, 72 h, mean ± S.E.M.
Description: as §1, §2

[5] = test system: MKN-45 cells; assay: SRB antiproliferative assay, monolayer culture; format: cell-based, human; conditions: Homo sapiens, MKN-45, 72 h, mean ± S.E.M.
Description: as §1, §2

[6] = test system: EBC-1 cells; assay: SRB antiproliferative assay, monolayer culture; format: cell-based, human; conditions: Homo sapiens, EBC-1, 72 h, mean ± S.E.M.
Description: as §1, §2

[7] = biological target: T1, KIT (h) (Homo sapiens, UniProt P10721); assay: Radiometric kinase panel assay; format: biochemical; conditions: Km ATP
T1 construct: purchased Eurofins Discovery

[8] = test system: AsPC-1 cells; assay: Apoptosis induction, annexin V-FITC/PI flow cytometry; format: cell-based, human; conditions: 10 μM, 48 h; for Late apoptosis: untreated 4.8%; for Early apoptosis: untreated 7.6%; for Percentage of total apoptosis: untreated 12.4%
Description: The ability of apoptosis induction of synthetic compounds was evaluated by FACS analysis with Annexin V-FITC/propidiuim iodide (PI) staining kit (BD Pharmingen, San Diego, CA, USA). AsPC-1 cells were cultured in 6-well plates at a density of 1 × 10^5 cells/ml. After 24 h, the synthesized derivatives at different concentrations were added and incubated for 48 h. After addition of trypsin to each well, the cells were harvested, transferred to 1.5 ml tubes and washed twice with PBS. At the final step, the cells were stained with Annexin V-FITC (5 µl) and PI (5 µl), followed by analysis by a FACS Calibur flow cytometer (Becton Dickinson, Mountain View, CA, USA). The effects of synthetic derivatives on the apoptosis rate were evaluated based on the fluorescence signal of 20,000 events.

[9] = biological target: T2, MET kinase (Homo sapiens, UniProt P08581); assay: MET kinase enzymatic HTRF assay; format: biochemical
T2 construct: purchased Millipore
T2 sequence (P08581 25-1390): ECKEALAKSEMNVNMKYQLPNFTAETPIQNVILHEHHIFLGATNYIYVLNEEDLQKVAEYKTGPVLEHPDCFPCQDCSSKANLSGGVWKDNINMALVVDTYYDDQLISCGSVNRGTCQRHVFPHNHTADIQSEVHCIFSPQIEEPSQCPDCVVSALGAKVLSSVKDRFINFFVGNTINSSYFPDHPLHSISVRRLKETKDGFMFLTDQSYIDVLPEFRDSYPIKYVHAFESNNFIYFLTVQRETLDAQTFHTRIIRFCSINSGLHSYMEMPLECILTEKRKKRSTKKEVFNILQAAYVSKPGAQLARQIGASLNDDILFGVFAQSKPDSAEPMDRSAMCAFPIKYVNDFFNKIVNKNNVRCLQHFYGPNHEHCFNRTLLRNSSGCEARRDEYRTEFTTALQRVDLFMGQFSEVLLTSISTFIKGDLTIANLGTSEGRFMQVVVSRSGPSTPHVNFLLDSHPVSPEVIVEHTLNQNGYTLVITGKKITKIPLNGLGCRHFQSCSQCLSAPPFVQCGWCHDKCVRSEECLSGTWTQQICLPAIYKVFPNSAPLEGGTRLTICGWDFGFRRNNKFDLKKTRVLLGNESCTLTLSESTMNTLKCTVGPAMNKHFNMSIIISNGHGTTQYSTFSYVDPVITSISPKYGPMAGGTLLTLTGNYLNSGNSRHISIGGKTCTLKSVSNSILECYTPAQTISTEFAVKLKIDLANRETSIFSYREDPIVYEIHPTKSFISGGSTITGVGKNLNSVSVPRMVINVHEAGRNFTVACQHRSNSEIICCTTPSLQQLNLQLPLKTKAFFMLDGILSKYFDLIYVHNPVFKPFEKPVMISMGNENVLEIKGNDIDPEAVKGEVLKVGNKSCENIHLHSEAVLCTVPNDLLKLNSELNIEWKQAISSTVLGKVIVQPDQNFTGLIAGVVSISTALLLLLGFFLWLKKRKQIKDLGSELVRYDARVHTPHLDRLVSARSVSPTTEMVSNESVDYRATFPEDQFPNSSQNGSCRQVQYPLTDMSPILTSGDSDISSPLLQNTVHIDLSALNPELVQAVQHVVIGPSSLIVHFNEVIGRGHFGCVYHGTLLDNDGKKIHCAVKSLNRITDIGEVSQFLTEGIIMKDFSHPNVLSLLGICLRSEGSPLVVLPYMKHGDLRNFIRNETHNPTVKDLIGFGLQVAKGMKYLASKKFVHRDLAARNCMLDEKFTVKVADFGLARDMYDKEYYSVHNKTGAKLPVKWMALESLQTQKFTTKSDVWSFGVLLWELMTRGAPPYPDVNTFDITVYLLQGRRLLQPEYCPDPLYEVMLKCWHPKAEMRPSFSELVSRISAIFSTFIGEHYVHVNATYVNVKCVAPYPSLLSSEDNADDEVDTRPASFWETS
Description: HTRF assay detects the phosphorylation level of a biotinylated tyrosine kinase substrate peptide (TK substrate) by MET kinase. The HTRF® KinEASE™ TK kit and MET kinase were purchased from Cisbio and Millipore, respectively. The optimal conditions for enzyme, substrate, ATP concentrations, and enzymatic reaction times were set.
In order to prepare the test compounds, after dissolving in DMSO, they were diluted in the reaction buffer containing 50 mM HEPES pH 7.0, 0.1 mM sodium orthovanadate, 0.01% BSA, 0.02% NaN3, 10 mM MgCl2, 5 mM MnCl2, 2 mM DTT. […] Finally, the Time Resolved-Fluorescence Resonance Energy Transfer (TR-FRET) signal was measured after an hour of incubation at room temperature.
The following equations were used to determine the inhibition rate (%): Ratio665/620=Emission665 nm/Emission620nm ΔR=Ratio Sample665/620-Ratio Background665/620∗100/Ratio Background665/620 Inhibition%=ΔRControl-ΔRSample∗100/ΔRControl
Background samples contained all reagents except for the enzyme. Control wells contained the same amount of DMSO contained in the sample.

[10] = biological target: T3, AKT1 (h) (Homo sapiens, UniProt P31749); assay: Radiometric kinase panel assay; format: biochemical; conditions: Km ATP
T3 construct: purchased Eurofins Discovery
T3 sequence (P31749 whole entry): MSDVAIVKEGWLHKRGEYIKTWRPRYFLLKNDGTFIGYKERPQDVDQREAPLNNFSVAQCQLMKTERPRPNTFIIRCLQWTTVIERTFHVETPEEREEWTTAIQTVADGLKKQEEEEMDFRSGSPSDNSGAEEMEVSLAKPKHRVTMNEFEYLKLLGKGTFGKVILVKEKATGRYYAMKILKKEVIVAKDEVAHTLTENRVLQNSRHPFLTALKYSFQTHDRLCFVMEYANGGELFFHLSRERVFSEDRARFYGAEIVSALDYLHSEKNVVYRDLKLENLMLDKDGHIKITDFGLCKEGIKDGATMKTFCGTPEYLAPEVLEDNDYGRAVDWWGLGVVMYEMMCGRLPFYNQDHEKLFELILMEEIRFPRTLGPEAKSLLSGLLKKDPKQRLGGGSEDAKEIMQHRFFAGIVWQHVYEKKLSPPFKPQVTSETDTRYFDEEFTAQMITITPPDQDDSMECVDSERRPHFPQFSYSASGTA

[11] = biological target: T4, ALK (h) (Homo sapiens, UniProt Q9UM73); assay: Radiometric kinase panel assay; format: biochemical; conditions: Km ATP
T4 construct: purchased Eurofins Discovery

[12] = biological target: T5, ABL (h) (Homo sapiens, UniProt P00519); assay: Radiometric kinase panel assay; format: biochemical; conditions: Km ATP
T5 construct: purchased Eurofins Discovery
T5 sequence (P00519 whole entry): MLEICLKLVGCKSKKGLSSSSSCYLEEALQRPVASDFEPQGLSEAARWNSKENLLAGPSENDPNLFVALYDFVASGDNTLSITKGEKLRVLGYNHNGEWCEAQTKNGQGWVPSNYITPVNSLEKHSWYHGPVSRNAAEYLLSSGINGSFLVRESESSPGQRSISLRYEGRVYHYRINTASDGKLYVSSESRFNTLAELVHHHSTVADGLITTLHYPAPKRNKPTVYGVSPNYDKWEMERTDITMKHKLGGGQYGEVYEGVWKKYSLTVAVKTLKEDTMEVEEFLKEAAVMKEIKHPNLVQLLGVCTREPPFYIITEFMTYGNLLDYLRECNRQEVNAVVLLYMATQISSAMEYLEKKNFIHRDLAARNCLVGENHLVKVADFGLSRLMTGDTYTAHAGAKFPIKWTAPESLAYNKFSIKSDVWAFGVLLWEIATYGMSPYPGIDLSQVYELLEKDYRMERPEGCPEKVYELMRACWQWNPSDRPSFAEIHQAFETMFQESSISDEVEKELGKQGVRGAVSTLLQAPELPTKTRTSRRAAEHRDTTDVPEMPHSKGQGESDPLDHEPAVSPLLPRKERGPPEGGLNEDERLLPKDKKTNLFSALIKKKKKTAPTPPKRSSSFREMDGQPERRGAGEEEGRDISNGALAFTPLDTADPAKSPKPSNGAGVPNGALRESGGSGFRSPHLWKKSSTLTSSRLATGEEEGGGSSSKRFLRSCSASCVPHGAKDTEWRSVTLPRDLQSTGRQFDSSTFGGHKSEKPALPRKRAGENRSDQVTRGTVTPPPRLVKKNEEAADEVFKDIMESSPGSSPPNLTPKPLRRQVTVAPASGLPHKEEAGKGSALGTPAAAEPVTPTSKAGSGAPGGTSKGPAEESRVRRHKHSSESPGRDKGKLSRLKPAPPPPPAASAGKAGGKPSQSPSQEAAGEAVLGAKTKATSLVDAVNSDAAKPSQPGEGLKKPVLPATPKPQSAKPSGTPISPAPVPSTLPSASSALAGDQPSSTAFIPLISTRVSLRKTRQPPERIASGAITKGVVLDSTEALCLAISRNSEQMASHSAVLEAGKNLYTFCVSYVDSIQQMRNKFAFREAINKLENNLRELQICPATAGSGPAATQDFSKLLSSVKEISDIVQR

[13] = biological target: T6, TRKA (h) (Homo sapiens, UniProt P04629); assay: Radiometric kinase panel assay; format: biochemical; conditions: Km ATP
T6 construct: purchased Eurofins Discovery

[14] = biological target: T7, FLT3 (h) (Homo sapiens, UniProt P36888); assay: Radiometric kinase panel assay; format: biochemical; conditions: Km ATP
T7 construct: purchased Eurofins Discovery
T7 sequence (P36888 27-993): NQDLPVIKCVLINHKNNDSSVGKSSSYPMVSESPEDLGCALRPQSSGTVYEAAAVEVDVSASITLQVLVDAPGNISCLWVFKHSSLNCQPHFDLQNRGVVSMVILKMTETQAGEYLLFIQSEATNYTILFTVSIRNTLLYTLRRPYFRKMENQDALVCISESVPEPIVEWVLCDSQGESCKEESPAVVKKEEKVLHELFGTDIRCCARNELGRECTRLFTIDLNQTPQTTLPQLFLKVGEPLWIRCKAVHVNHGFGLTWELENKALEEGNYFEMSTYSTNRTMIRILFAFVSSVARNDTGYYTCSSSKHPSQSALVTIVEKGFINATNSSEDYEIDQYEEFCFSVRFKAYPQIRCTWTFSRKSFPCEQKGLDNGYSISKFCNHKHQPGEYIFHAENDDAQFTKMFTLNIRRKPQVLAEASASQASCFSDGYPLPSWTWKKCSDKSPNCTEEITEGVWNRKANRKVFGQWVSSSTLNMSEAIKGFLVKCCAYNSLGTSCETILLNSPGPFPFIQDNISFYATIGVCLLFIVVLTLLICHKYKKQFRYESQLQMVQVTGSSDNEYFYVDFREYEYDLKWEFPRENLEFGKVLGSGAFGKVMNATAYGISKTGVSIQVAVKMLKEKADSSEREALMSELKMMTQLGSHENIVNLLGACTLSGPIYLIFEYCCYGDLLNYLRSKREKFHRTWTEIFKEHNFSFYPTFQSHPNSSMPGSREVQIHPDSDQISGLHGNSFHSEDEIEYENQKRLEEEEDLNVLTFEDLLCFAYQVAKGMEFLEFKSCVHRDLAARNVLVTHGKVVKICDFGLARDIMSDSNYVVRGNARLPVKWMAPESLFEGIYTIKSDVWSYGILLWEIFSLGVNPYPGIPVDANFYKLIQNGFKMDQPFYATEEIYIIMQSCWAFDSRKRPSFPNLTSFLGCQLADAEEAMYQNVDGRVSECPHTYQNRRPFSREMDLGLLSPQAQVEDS

[15] = biological target: T8, PDGFRA (h) (Homo sapiens, UniProt P16234); assay: Radiometric kinase panel assay and dose-response; format: biochemical; conditions: for inhibition at 10 µM: radiometric assay, Km ATP
T8 construct: purchased Eurofins Discovery
T8 sequence (P16234 24-1089): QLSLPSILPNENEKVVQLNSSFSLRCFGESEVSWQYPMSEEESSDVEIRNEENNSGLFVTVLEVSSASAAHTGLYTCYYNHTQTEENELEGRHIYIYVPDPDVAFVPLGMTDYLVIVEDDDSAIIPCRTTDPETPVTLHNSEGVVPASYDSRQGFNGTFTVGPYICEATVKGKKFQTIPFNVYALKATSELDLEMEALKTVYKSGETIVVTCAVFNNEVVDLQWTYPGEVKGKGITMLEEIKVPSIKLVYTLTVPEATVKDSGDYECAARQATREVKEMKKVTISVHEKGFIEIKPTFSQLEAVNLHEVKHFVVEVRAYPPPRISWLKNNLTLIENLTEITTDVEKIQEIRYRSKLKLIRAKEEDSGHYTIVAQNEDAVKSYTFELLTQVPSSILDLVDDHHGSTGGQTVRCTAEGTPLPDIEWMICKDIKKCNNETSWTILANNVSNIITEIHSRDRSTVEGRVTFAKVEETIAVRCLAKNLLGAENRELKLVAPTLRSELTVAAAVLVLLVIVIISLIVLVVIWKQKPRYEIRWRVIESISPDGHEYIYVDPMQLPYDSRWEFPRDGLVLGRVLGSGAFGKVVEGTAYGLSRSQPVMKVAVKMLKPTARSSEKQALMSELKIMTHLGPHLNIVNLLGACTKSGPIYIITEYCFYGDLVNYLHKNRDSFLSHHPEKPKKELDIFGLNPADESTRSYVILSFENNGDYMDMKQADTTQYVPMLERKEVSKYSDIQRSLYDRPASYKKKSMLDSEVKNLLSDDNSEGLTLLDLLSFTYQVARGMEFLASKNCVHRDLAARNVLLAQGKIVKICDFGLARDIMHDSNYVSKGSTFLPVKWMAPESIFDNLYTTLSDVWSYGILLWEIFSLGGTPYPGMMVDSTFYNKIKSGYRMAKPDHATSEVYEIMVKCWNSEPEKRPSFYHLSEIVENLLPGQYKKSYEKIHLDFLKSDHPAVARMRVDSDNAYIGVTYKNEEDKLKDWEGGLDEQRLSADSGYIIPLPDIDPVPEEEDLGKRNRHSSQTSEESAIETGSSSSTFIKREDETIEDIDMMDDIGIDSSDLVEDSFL
Description: Moreover, a dose–response analysis was performed at six concentrations to determine the activity of compound 8c against PDGFRA kinase, and IC50 value was estimated by curve fitting. The tests were performed by Eurofins Discovery (https://www.eurofinsdiscovery.com).

Row | IC50 [1] [µM] | IC50 [2] [µM] | IC50 [3] [µM] | IC50 [4] [µM] | IC50 [5] [µM] | inhibition at 10 µM [7] [%] | inhibition at 10 µM [10] [%] | inhibition at 10 µM [11] [%] | inhibition at 10 µM [12] [%] | inhibition at 10 µM [13] [%] | inhibition at 10 µM [14] [%] | inhibition at 10 µM [15] [%] | SMILES | IC50 [6] [µM] | Late apoptosis [8] [%] | Early apoptosis [8] [%] | Percentage of total apoptosis [8] [%] | further results
1 | 31.5 ± 6.4 | 25.6 ± 2.4 | 15.3 ± 2.3 | 21 ± 4.7 | 22 ± 4.8 | 7 | 15 | 3 | 8 | 13 | 8 | 58 | Cc1ccc(Cn2cc(COc3ccc(C=NNc4ncnc5ccccc45)cc3)nn2)cc1 [Compound 8c, 2-(4-((1-(4-Methylbenzyl)-1H-1,2,3-triazol-4-yl)methoxy)benzylidene)-1-(quinazolin-4-yl)hydrazine] | 19 ± 0.7 | 10.7 | 15.5 | 26.1 | IC50 ([9]; HTRF assay, read-out: MET kinase inhibition IC50): 36 ± 9.5 µM; IC50 ([15]; dose-response at six concentrations, curve fitting, read-out: PDGFRA kinase inhibition IC50): 7.1 µM
2 | 34.4 ± 6.4 | 11.5 ± 0.8 | 9.7 ± 1.9 | 8.6 ± 1.3 | 12 ± 3.9 | 2 | 26 | 14 | 17 | 28 | 18 | 46 | CC(C)(C)c1ccc(Cn2cc(COc3ccc(C=NNc4ncnc5ccccc45)cc3)nn2)cc1 [Compound 8h, 2-(4-((1-(4-Tert-butylbenzyl)-1H-1,2,3-triazol-4-yl)methoxy)benzylidene)-1-(quinazolin-4-yl)hydrazine] | 6.1 ± 1 | 9.6 | 15.8 | 25.4 | inhibition at 10 µM ([9]; at 10 μM, mean ± S.E.M., read-out: Inhibitory effect against MET kinase): 22 ± 7.4%; inhibition at 25 µM ([9]; at 25 μM, mean ± S.E.M., read-out: Inhibitory effect against MET kinase): 25.7 ± 4.7%; inhibition at 50 µM ([9]; at 50 μM, mean ± S.E.M., read-out: Inhibitory effect against MET kinase): 32.9 ± 2.2%
